We go through 19 compounds from article PMC7555970, “Design, Synthesis and Biological Evaluation of Biphenylglyoxamide-Based Small Molecular Antimicrobial Peptide Mimics as Antibacterial Agents” (International Journal of Molecular Sciences, 2020).

Molecules are shown by their SMILES. Converted amounts (≈) assume the structure as drawn. Read-outs that look alike come from different tables or passages of the source.

Test [1] concerns MRC-5 normal human lung fibroblasts. As to the kind of experiment: MTT toxicity assay. The class given is cell-based. Particulars: 72 h drug incubation, read-out: IC50 against MRC-5 normal human lung fibroblasts. Here is the method: The toxicity of the compounds was measured using an MTT (3-(4,5-dimethylthiazol-2-yl)-2,5-diphenyltetrazolium bromide) (Sigma Aldrich, St Louis, MO, USA) colorimetric assay against normal human lung fibroblasts MRC-5 cells. The cells were cultured in minimal essential medium (MEM; Sigma Aldrich, St Louis, MO, USA) containing 10% foetal bovine serum (FBS). The cells were maintained at 37 °C in 5% CO2 as an adherent monolayer and was passaged upon reaching confluence by standard cell culture techniques. MRC-5 cells were seeded at 5000 cells/well in 96-well plates to ensure full confluence (quiescence) and left overnight to adhere to the plate wells. The adherent cells were treated with 1–500 µM of compounds by dissolving in DMSO and serially diluting with media. The final concentration of DMSO was 0.5% (v/v). After 72 h drug incubation, […] stock MTT solution (5 mg/mL) was added and the cells were incubated for another 3.5–4 h. MTT solution-containing media was carefully aspirated without displacing the purple crystals from the bottom and […] acid-isopropanol was added to all wells and mixed slowly by shaking with an orbital shaker to dissolve the dark blue crystals. The metabolic activity was detected by spectrophotometric analysis by assessing the read absorbance (590/620 nm) on an EnSight plate reader (PerkinElmer, Waltham, MA, USA) and cell viability was expressed as a percentage of untreated control cells. The determination of IC50 values was performed using GraphPad Prism 6 (GraphPad, San Diego, CA, USA). Each experiment was performed in triplicate and was repeated in three independent experiments.
Background: Formazan colour is commonly taken as a measure of viable cells.

A further test has as its system S. aureus (SA38). Description: Minimum inhibitory concentration (MIC) assay against S. aureus. Format: cell-based, Staphylococcus aureus. Here is the method:
(§1) The antimicrobial activity of the compounds was evaluated by MIC assay using the procedure described by Clinical and Laboratory Standards Institute (CLSI). A single colony of bacteria was cultured overnight in trypticase soy broth (TSB; Oxoid, Basingstoke, UK) at 37 °C with shaking. The resulting bacterial culture was collected by centrifugation and resuspended in TSB twice. The optical density (OD) of the resulting culture was adjusted to OD660 = 0.1 in TSB (which is equivalent to 10^8 colony forming unit (CFU)/mL bacteria). It was further diluted to 10^6 CFU/mL in TSB. 100 µL of the bacterial solution was then added to wells of a 96-well plate (Costar; Sigma-Aldrich, St Louis, MO, USA) containing 100 µL serially diluted peptide mimic, with final concentration ranging from 1 to 250 µM. Wells with bacteria but no compound were used as negative control while wells with only media were set as blank. The plates were then wrapped with parafilm to prevent evaporation and incubated with shaking at 120 rpm at 37 °C for 18–24 h, and the data were recorded by measuring the OD value at 660 nm using a FLUOstar Omega (BMG Labtech, Mornington, Victoria, Australia) microplate reader. […] Each experiment was performed in triplicate and was repeated in three independent experiments.

The next test concerns P. aeruginosa (PA01). As to the kind of experiment: Minimum inhibitory concentration (MIC) assay against P. aeruginosa. The class given is cell-based. To be noted: Pseudomonas aeruginosa. The protocol:
as §1

The next test deals with E. coli (K12). Description: Minimum inhibitory concentration (MIC) assay against E. coli. Format: cell-based. Particulars: Escherichia coli. Here is the method:
as §1

Test [2] has as its system established S. aureus biofilms. Description: Biofilm disruption assay (crystal violet staining), S. aureus. The class given is cell-based, Staphylococcus aureus. To be noted: any tested concentration (1×, 2× and 4× MIC), 24 h treatment. Here is the method: Bacterial cultures (S. aureus and E. coli) were grown in Muller Hinton broth (MHB; Oxoid, Basingstoke, UK) media overnight at 37 °C with shaking at 120 rpm. Cultures were diluted (1:20) in MHB medium and 200 µL aliquots were dispensed to wells in a flat bottom 96-well plate (Costar; Sigma-Aldrich, St Louis, MO, USA). Biofilm was then grown in the 96-well plate at 37 °C overnight. After that, loosely bound cells were washed away with 1x phosphate-buffered saline (PBS) and cultures were then supplemented with different concentrations of test compounds dissolved in DMSO and incubated for a further 24 h with shaking at 120 rpm. Biofilms adhered on the plate substratum were quantified using crystal violet staining as described previously. The experiment was performed in triplicate.

For `CCCCCCCCS(=O)(=O)Nc1ccc(-c2ccccc2)cc1C(=O)C(=O)NCCCN(C)C` [Compound 11a, N-(3-(Dimethylamino)propyl)-2-(4-(octylsulfonamido)-[1,1’-biphenyl]-3-yl)-2-oxoacetamide], the IC50 (commonly the concentration that gives 50% inhibition) in test [1] was 28.2 µM; in test [1] (Homo sapiens, MRC5, 72 h), under 30 µM. Also, the MIC – broadly, the lowest concentration that inhibits growth of the organism – in the test on S. aureus (SA38) was 24 µM (≈ 12 µg/mL).
For `CCCCCCCCS(=O)(=O)Nc1ccc(-c2ccc(F)cc2)cc1C(=O)C(=O)NCCCN(C)C` [Compound 11b, N-(3-(Dimethylamino)propyl)-2-(4’-fluoro-4-(octylsulfonamido)-[1,1’-biphenyl]-3-yl)-2-oxoacetamide], the MIC in the test on S. aureus (SA38) is reported as 16 µM (≈ 8.31 µg/mL).
In the test on S. aureus (SA38), `CCCCCCCCS(=O)(=O)Nc1ccc(-c2ccc(Cl)cc2)cc1C(=O)C(=O)NCCCN(C)C` [Compound 11c, 2-(4’-Chloro-4-(octylsulfonamido)-[1,1’-biphenyl]-3-yl)-N-(3-(dimethylamino)propyl)-2-oxoacetamide] gave a minimal inhibitory concentration (MIC) of 16 µM (≈ 8.58 µg/mL).
`CCCCCCCCS(=O)(=O)Nc1ccc(-c2ccc3ccccc3c2)cc1C(=O)C(=O)NCCCN(C)C` [Compound 11d, N-(3-(Dimethylamino)propyl)-2-(5-(naphthalen-2-yl)-2-(octylsulfonamido)phenyl)-2-oxoacetamide] displayed an MIC in the test with S. aureus (SA38) of 16 µM (≈ 8.83 µg/mL).
`CCCCCCCCS(=O)(=O)Nc1ccc(CCCC)cc1C(=O)C(=O)NCCCN(C)C` [Compound 11e, 2-(5-Butyl-2-(octylsulfonamido)phenyl)-N-(3-(dimethylamino)propyl)-2-oxoacetamide] displayed an MIC against S. aureus (SA38) of 63 µM (≈ 30.3 µg/mL).
In the case of `CCCCS(=O)(=O)Nc1ccc(-c2ccccc2)cc1C(=O)C(=O)NCCCN(C)C` [Compound 12a, 2-(4-(Butylsulfonamido)-[1,1’-biphenyl]-3-yl)-N-(3-(dimethylamino)propyl)-2-oxoacetamide], in the test with S. aureus (SA38) (Staphylococcus aureus), the MIC was over 250 µM.
Take `CCCCCCCCS(=O)(=O)Nc1ccc(-c2ccccc2)cc1C(=O)C(=O)NCCCN(C)C` [Compound 13a, N,N-Dimethyl-3-(2-(4-(octylsulfonamido)-[1,1’-biphenyl]-3-yl)-2-oxoacetamido)propan-1-aminium chloride]: the IC50 in test [1] amounted to 25 µM. This compound showed an MIC against S. aureus (SA38) (Staphylococcus aureus) of 16 µM.
Compound `CCCCCCCCS(=O)(=O)Nc1ccc(-c2ccc(F)cc2)cc1C(=O)C(=O)NCCCN(C)C` [Compound 13b, 3-(2-(4’-Fluoro-4-(octylsulfonamido)-[1,1’-biphenyl]-3-yl)-2-oxoacetamido)-N,N-dimethylpropan-1-aminium chloride] came in with an MIC against S. aureus (SA38) (Staphylococcus aureus) of 16 µM.
As to `CCCCCCCCS(=O)(=O)Nc1ccc(-c2ccc(Cl)cc2)cc1C(=O)C(=O)NCCCN(C)C` [Compound 13c, 3-(2-(4’-Chloro-4-(octylsulfonamido)-[1,1’-biphenyl]-3-yl)-2-oxoacetamido)-N,N-dimethylpropan-1-aminium chloride], the IC50 in test [1] (Homo sapiens, MRC5, 72 h) stood at 25.5 µM. Moreover, in the test on S. aureus (SA38) (Staphylococcus aureus), the MIC was determined as 16 µM.
Regarding `CCCCCCCCS(=O)(=O)Nc1ccc(-c2ccc3ccccc3c2)cc1C(=O)C(=O)NCCCN(C)C` [Compound 13d, N,N-Dimethyl-3-(2-(5-(naphthalen-2-yl)-2-(octylsulfonamido)phenyl)-2-oxoacetamido)propan-1-aminium chloride], the IC50 in test [1] worked out at 19.7 µM. Further, the MIC in the test with S. aureus (SA38) (Staphylococcus aureus) was determined as 8 µM.
Regarding `CCCCCCCCS(=O)(=O)Nc1ccc(CCCC)cc1C(=O)C(=O)NCCCN(C)C` [Compound 13e, 3-(2-(5-Butyl-2-(octylsulfonamido)phenyl)-2-oxoacetamido)-N,N-dimethylpropan-1-aminium chloride], the IC50 in test [1] (Homo sapiens, MRC5, 72 h) was found to be 23.6 µM. It took 32 µM to inhibit growth with S. aureus (SA38) (Staphylococcus aureus) (MIC).
The compound `CCCCS(=O)(=O)Nc1ccc(-c2ccccc2)cc1C(=O)C(=O)NCCCN(C)C.Cl` [Compound 14a, 3-(2-(4-(Butylsulfonamido)-[1,1’-biphenyl]-3-yl)-2-oxoacetamido)-N,N-dimethylpropan-1-aminium chloride] came in with a minimum inhibitory concentration (MIC) against S. aureus (SA38) of over 250 µM.
For `CCCCCCCCS(=O)(=O)Nc1ccc(-c2ccccc2)cc1C(=O)C(=O)NCCC[N+](C)(C)C` [Compound 15a, N,N,N-Trimethyl-3-(2-(4-(octylsulfonamido)-[1,1’-biphenyl]-3-yl)-2-oxoacetamido)propan-1-aminium iodide], the MIC with P. aeruginosa (PA01) worked out at 125 µM; against E. coli (K12) it was 32 µM; with S. aureus (SA38) (Staphylococcus aureus), 16 µM. In addition, the IC50 in test [1] (Homo sapiens, MRC5, 72 h) amounted to 50.7 µM.
On the same counts, the results for `CCCCCCCCS(=O)(=O)Nc1ccc(-c2ccc(F)cc2)cc1C(=O)C(=O)NCCC[N+](C)(C)C` [Compound 15b, 3-(2-(4’-Fluoro-4-(octylsulfonamido)-[1,1’-biphenyl]-3-yl)-2-oxoacetamido)-N,N,N-trimethylpropan-1-aminium iodide] are 63 µM, 32 µM, 16 µM and 190 µM.
For `CCCCCCCCS(=O)(=O)Nc1ccc(CCCC)cc1C(=O)C(=O)NCCC[N+](C)(C)C` [Compound 15e, 3-(2-(5-Butyl-2-(octylsulfonamido)phenyl)-2-oxoacetamido)-N,N,N-trimethylpropan-1-aminium iodide], the MIC in the test with P. aeruginosa (PA01) was over 250 µM; in the test with E. coli (K12), over 250 µM; in the test with S. aureus (SA38) (Staphylococcus aureus), 16 µM. In addition, the IC50 in test [1] (Homo sapiens, MRC5, 72 h) amounted to 101 µM.
Compound `CCCCS(=O)(=O)Nc1ccc(-c2ccccc2)cc1C(=O)C(=O)NCCC[N+](C)(C)C` [Compound 16a, 3-(2-(4-(Butylsulfonamido)-[1,1’-biphenyl]-3-yl)-2-oxoacetamido)-N,N,N-trimethylpropan-1-aminium iodide] yielded an MIC against S. aureus (SA38) (Staphylococcus aureus) of over 250 µM.
Take `CCCCCCCCS(=O)(=O)Nc1ccc(-c2ccc(Cl)cc2)cc1C(=O)C(=O)NCCCNC(=N)N.Cl` [Compound 22c, 2-(4’-Chloro-4-(octylsulfonamido)-[1,1’-biphenyl]-3-yl)-N-(3-guanidinopropyl)-2-oxoacetamide hydrochloride]: the MIC in the test on P. aeruginosa (PA01) worked out at 250 µM; with E. coli (K12), 63 µM; in the test on S. aureus (SA38) (Staphylococcus aureus) it was 8 µM. The “disruption of preformed S. aureus biofilms” value in test [2] was “failed to disrupt any”. Besides, the IC50 in test [1] (Homo sapiens, MRC5, 72 h) came out at 95 µM.
With `CN(C)CCCNC(=O)C(=O)c1cc(-c2ccccc2)ccc1NC(=O)c1ccc2ccccc2c1.Cl` [Compound 26, 3-(2-(4-(2-Naphthamido)-[1,1’-biphenyl]-3-yl)-2-oxoacetamido)-N,N-dimethylpropan-1-aminium chloride], the MIC in the test with S. aureus (SA38) is listed as over 250 µM.
In the case of `C[N+](C)(C)CCCNC(=O)C(=O)c1cc(-c2ccccc2)ccc1NC(=O)c1ccc2ccccc2c1` [Compound 27, 3-(2-(4-(2-Naphthamido)-[1,1’-biphenyl]-3-yl)-2-oxoacetamido)-N,N,N-trimethylpropan-1-aminium iodide], the MIC against S. aureus (SA38) (Staphylococcus aureus) is 32 µM.
